Here are results for two compounds from US20190357555A1, “BLUEBERRY FRESH-KEEPING AGENT, PREPARATION METHOD AND APPLICATIONS THEREOF” (ZHEJIANG ACADEMY OF AGRICULTURAL SCIENCES, priority 2018, published 2019).

For the experiment, the system named is Botrytis cinerea. Put plainly: Filter-paper inhibition zone test against Botrytis cinerea. Type of experiment: cell-based. Particulars: PDA, 28° C., 6 days; for inhibition zone diameter: filter paper 1 cm soaked 4 hours; for inhibitory effect on Botrytis cinerea (in words): filter paper test. As for the experimental part:
Test species and reagents: Botrytis cinerea was isolated from the picked blueberries in the laboratory, and chitosan and ascorbic acid were purchased commercially.
Medium and culture conditions: a PDA medium was used, and cultured at 28° C. for 6 days.
Antibacterial effect test: after Botrytis cinerea was activated with the PDA medium, lawn of Botrytis cinerea was picked up and suspended with sterile water to obtain a bacterial suspension. Scraps of filter paper with a diameter of 1 cm were made from a highly absorbent filter paper by using a puncher, and the scraps of filter paper were subjected to dry heat sterilization and soaked in the Galla chinensis extract, a chitosan solution, and an ascorbic acid solution, respectively, and dried for use after 4 hours soaking. The solid PDA medium was melted, poured into a culture dish, cooled and solidified, then 0.1 mL of the bacterial suspension was added and uniformly coated, and then the scraps of filter paper soaked with the above solutions were attached to the bacteria-containing culture dish, and a scrap of filter paper impregnated with sterile water was used as a control. The culture dish treated above was cultured at 28° C. for 6 days, and the diameters of inhibition zones were measured.

On to `O=C(O)c1cc(O)c(O)c(O)c1` [gallic acid], for which the inhibition zone diameter was determined as 0.00 mm and the “inhibitory effect on Botrytis cinerea (in words)” value is recorded as “no inhibitory effect”.

For `O=C1O[C@H]([C@@H](O)CO)C(O)=C1O` [ascorbic acid], the inhibition zone diameter is reported as 0.00 mm and the “inhibitory effect on Botrytis cinerea (in words)” value is reported as “no inhibitory effect”.
